Measured values reported in patent publication US10703756B2, “Pyrrolo[2,3-D]pyrimidinyl, pyrrolo[2,3-B]pyrazinyl, pyrrolo[2,3-B]pyridinyl acrylamides and epoxides thereof” (Pfizer Inc., priority 2015, dated 2020).

Columns and labels:
JAK3 enzyme [1] = biological target: T1, JAK3 enzyme (Homo sapiens, UniProt P52333); assay: JAK Caliper Enzyme Assay at 4 μM ATP; type: biochemical
T1 sequence (P52333 1-1124): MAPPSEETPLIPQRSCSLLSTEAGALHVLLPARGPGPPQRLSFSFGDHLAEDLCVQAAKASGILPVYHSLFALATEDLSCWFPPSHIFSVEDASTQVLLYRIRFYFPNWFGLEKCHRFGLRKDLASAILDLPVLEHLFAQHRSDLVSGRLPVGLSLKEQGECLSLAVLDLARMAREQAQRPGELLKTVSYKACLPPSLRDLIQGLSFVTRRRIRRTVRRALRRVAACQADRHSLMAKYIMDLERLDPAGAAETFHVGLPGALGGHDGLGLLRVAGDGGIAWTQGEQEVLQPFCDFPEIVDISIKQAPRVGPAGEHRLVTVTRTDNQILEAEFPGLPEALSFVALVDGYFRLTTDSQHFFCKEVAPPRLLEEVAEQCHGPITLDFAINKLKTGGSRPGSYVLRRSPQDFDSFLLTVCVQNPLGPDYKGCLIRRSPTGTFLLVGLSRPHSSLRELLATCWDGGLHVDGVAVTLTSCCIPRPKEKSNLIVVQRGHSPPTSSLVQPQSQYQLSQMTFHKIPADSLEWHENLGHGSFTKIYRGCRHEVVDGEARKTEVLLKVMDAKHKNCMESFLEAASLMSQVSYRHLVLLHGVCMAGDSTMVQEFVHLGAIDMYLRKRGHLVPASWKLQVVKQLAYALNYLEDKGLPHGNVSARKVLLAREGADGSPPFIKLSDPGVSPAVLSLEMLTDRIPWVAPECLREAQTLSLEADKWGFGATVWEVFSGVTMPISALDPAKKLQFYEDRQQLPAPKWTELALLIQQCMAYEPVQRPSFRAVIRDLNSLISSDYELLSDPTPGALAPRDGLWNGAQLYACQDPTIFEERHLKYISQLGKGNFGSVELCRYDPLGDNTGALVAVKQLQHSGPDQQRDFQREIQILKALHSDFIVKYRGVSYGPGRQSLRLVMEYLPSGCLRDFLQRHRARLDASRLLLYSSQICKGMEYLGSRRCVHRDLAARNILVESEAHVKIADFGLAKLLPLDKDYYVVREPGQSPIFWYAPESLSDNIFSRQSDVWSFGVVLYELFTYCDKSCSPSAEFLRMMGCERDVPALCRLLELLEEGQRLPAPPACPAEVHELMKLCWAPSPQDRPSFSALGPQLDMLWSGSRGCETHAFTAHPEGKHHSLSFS
Summary of the method: (§1)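 First, compound stocks in DMSO were serially diluted half-log over 11 points, starting at 600 μM. Next, reactions ran with batch-optimized enzyme and timing targeting 20%-30% phosphorylation. Finally, wells were sampled and product separated from substrate peptide electrophoretically.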

JAK3 enzyme [2] = biological target: T1, JAK3 enzyme; assay: JAK Caliper Enzyme Assay at 1 mM ATP; type: biochemical
Summary of the method: as §1

| Compound | IC50 (JAK3 enzyme [1]) [nM] | IC50 (JAK3 enzyme [2]) [nM] |
| --- | --- | --- |
| C=CC(=O)N1CCN(c2cnc3[nH]cc(C(=O)NCCCC(F)(F)F)c3n2)CC1(C)C [Example 272, 2-(4-acryloyl-3,3-dimethylpiperazin-1-yl)-N-(4,4,4-trifluorobutyl)-5H-pyrrolo[2,3-b]pyrazine-7-carboxamide] | 3.82 | 651 |
| C=CC(=O)N1CCC(Nc2cnc3[nH]cc(C(=O)NC[C@H](C)CC(F)(F)F)c3n2)CC1C (stereo partly drawn) [Example 280, 2-[(1-acryloyl-2-methylpiperidin-4-yl)amino]-N-[(2R)-4,4,4-trifluoro-2-methylbutyl]-5H-pyrrolo[2,3-b]pyrazine-7-carboxamide] | 2.49 | 501 |
| C=CC(=O)N1CCN(c2cnc3[nH]cc(C(=O)NCC(F)(F)F)c3n2)CC1(C)C [Example 286, 2-(4-acryloyl-3,3-dimethylpiperazin-1-yl)-N-(2,2,2-trifluoroethyl)-5H-pyrrolo[2,3-b]pyrazine-7-carboxamide] | 12.4 | 1020 |
| C=CC(=O)N1CCN(c2cnc3[nH]cc(C(=O)N[C@@H]4C[C@H]4C(F)(F)F)c3n2)CC1 [Example 287, 2-(4-acryloylpiperazin-1-yl)-N-[(1R,2R)-2-(trifluoromethyl)cyclopropyl]-5H-pyrrolo[2,3-b]pyrazine-7-carboxamide] | 2.71 | 499 |
| C=CC(=O)N1CCN(c2cnc3[nH]cc(C(=O)N[C@@H]4C[C@H]4C(F)(F)F)c3n2)CC1(C)C [Example 290, 2-(4-acryloyl-3,3-dimethylpiperazin-1-yl)-N-[(1R,2R)-2-(trifluoromethyl)cyclopropyl]-5H-pyrrolo[2,3-b]pyrazine-7-carboxamide] | 20.8 | 2150 |
| C=CC(=O)N1CCN(c2cnc3[nH]cc(C(=O)NCC4(O)CCC(F)(F)CC4)c3n2)CC1(C)C [Example 291, 2-(4-acryloyl-3,3-dimethylpiperazin-1-yl)-N-[(4,4-difluoro-1-hydroxycyclohexyl)methyl]-5H-pyrrolo[2,3-b]pyrazine-7-carboxamide] | 15.5 | 1490 |
| C=CC(=O)N1CCN(c2cnc3[nH]cc(C(=O)N[C@@H]4C[C@H]4C(F)(F)F)c3n2)C[C@@H]1CC(C)C [Example 303, 2-[(3S)-4-acryloyl-3-(2-methylpropyl)piperazin-1-yl]-N-[(1R,2R)-2-(trifluoromethyl)cyclopropyl]-5H-pyrrolo[2,3-b]pyrazine-7-carboxamide] | 4.81 | 731 |
| C=CC(=O)N1CCN(c2cnc3[nH]cc(C(=O)NC4CC(F)(F)C4)c3n2)CC1(C)C [Example 325, 2-(4-acryloyl-3,3-dimethylpiperazin-1-yl)-N-(3,3-difluorocyclobutyl)-5H-pyrrolo[2,3-b]pyrazine-7-carboxamide] | 12.8 | 1260 |
| C=CC(=O)N1CCC(Oc2cnc3[nH]cc(C(=O)NCCC(F)(F)F)c3c2)CC1 [Example 338, 5-[(1-acryloylpiperidin-4-yl)oxy]-N-(3,3,3-trifluoropropyl)-1H-pyrrolo[2,3-b]pyridine-3-carboxamide] | 31.4 | 2780 |
| C=CC(=O)N1CCC(Oc2cnc3[nH]cc(C(=O)NC4CCCC(F)(F)C4)c3c2)CC1 (stereo not drawn) [Example 339, 5-[(1-acryloylpiperidin-4-yl)oxy]-N-(3,3-difluorocyclohexyl)-1H-pyrrolo[2,3-b]pyridine-3-carboxamide] | 16.5 | 2700 |
| C=CC(=O)N1CCC(Oc2cnc3[nH]cc(C(=O)NCc4cccc(F)c4)c3c2)CC1 [Example 340, 5-[(1-acryloylpiperidin-4-yl)oxy]-N-(3-fluorobenzyl)-1H-pyrrolo[2,3-b]pyridine-3-carboxamide] | 30 | 3470 |
| C=CC(=O)N1CCC(Oc2cnc3[nH]cc(C(=O)NCc4ccccc4)c3c2)CC1 [Example 342, 5-[(1-acryloylpiperidin-4-yl)oxy]-N-benzyl-1H-pyrrolo[2,3-b]pyridine-3-carboxamide] | 26.4 | 2630 |
